Source: US12018093B2, “Hemiasterlin derivatives and antibody-drug conjugates including same” (priority 2017, dated 2024)
Where “and” joins values, the source holds several entries; their conditions need not be identical. Identical values can stand only once. Entries after “also recorded” stand apart in the source; their conditions may differ. Like-named read-outs stand apart in the source and are kept apart here.

Tests used:
SU-DHL-1 cells = test: Cellular toxicity test (1), CellTiter-Glo, SU-DHL-1; assay type: cell-based; details: Homo sapiens, 96 h, cultured 4 days, cell viability
Description: (§1) SU-DHL-1 cells (American Type Culture Collection, hereinafter, ATCC) and Karpas-299 cells (European Collection of Authenticated Cell Cultures, hereinafter, ECACC), which are human lymphoma cell lines, were cultured in RPMI 1640 (GIBCO) containing 10% fetal bovine serum (MP Biomedicals) (hereinafter, referred to as the “culture medium” in this test). SU-DHL-1 cells and Karpas-299 cells were prepared to be 2×10^6 cells/mL in the culture medium, and were added to a 96 well microplate for cell culturing in an amount of 50 μL for each well. Compounds of Examples or hemiasterlin 4 times diluted with the culture medium in 8 stages were added to the microplate in an amount of 50 μL for each well. To wells to which the test substance was not added, the culture medium was added in an amount of 50 μL for each well. These were cultured at 37 degree under 5% CO2 for 4 days. After culturing, the microplate was taken out from the incubator, and was left at rest at room temperature for 10 minutes. To each well, 50 μL of CellTiter-Glo Luminescent Cell Viability Assay (Promega) was added, and the resultant mixture was stirred. This mixture was incubated at a dark place for 20 minutes. Using a microplate luminometer, luminescence at each well was measured, thereby calculating the cell viability for each concentration of the test substance. From the cell viability, the IC50 value of the test substance was determined.
(§2) The IC50 value was calculated by the following formula: IC50(nM)=antilog(LOG10(a/b)×(e−d)/(c−d)+LOG10b) • a: concentration a of test substance • b: concentration b of test substance • c: cell viability upon adding test substance with concentration a • d: cell viability upon adding test substance with concentration b • e: intermediate value between maximum and minimum among cell viabilities upon • adding test substances with different concentrations (a and b are concentrations crossing the cell viability e, and a>b is indicated).
(§3) The cell viability at each concentration was calculated by the following formula: Cell Viability (%)=a′/b′×100 • a′: mean value of luminescence amount of wells to which test substance was added (n=6) • b′: mean value of luminescence amount of wells to which test substance was not added (n=6) • (n represents the number of evaluations performed per test substance concentration).

SK-BR-3 cells = test: Cellular toxicity test (2), CellTiter-Glo, SK-BR-3; assay type: cell-based; details: Homo sapiens, 72 h, cultured 3 days, cell viability
Description: as §2, §3
SK-BR-3 cells (ATCC), which are a human breast cancer cell line, were cultured in McCoy's 5A (GIBCO) containing 10% fetal bovine serum (MP Biomedicals) (hereinafter, referred to as the “culture medium” in this test). SK-BR-3 cells were prepared to be 2×10^6 cells/mL in the culture medium, added to a 96 well microplate for cell culturing in an amount of 50 μL for each well, and cultured at 37 degree under 5% CO2 overnight, and then, compounds of Examples or hemiasterlin 4 times diluted with the culture medium in 8 stages were added to the microplate in an amount of 50 μL for each well. To wells to which the test substance was not added, the culture medium was added in an amount of 50 μL for each well. These were cultured at 37 degree under 5% CO2 for 3 days. After culturing, the microplate was taken out from the incubator, and was left at rest at room temperature for 10 minutes. 50 μL of CellTiter-Glo Luminescent Cell Viability Assay (Promega) was added, and the resultant mixture was stirred. This mixture was incubated at a dark place for 20 minutes. Using a microplate luminometer, luminescence at each well was measured, thereby calculating the cell viability for each concentration of the test substance. The IC50 value was calculated in accordance with the method described in Test Example 3.

porcine tubulin [1] = target: T1, porcine tubulin (Sus scrofa, UniProt P02550+P02554); test: Activity for inhibiting microtubule polymerization using porcine tubulins (1); assay type: biochemical; design: purchased Cytoskeleton Inc. BK006P; details: compound 0.91 μM; absorbance at 340 nm, 37° C.; FIG. 1 and FIG. 2
T1 sequence (P02554 whole entry): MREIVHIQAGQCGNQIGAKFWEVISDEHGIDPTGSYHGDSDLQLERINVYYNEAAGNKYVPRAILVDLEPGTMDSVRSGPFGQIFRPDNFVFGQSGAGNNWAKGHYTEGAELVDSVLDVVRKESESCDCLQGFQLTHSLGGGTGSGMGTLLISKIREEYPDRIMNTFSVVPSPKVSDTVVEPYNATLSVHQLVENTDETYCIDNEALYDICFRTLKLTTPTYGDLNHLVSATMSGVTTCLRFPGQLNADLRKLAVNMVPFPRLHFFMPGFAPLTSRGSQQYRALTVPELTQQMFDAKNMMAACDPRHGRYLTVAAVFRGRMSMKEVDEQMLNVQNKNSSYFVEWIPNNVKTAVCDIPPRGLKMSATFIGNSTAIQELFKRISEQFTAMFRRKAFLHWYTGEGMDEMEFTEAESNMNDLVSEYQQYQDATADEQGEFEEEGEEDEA
T1 sequence (P02550 whole entry): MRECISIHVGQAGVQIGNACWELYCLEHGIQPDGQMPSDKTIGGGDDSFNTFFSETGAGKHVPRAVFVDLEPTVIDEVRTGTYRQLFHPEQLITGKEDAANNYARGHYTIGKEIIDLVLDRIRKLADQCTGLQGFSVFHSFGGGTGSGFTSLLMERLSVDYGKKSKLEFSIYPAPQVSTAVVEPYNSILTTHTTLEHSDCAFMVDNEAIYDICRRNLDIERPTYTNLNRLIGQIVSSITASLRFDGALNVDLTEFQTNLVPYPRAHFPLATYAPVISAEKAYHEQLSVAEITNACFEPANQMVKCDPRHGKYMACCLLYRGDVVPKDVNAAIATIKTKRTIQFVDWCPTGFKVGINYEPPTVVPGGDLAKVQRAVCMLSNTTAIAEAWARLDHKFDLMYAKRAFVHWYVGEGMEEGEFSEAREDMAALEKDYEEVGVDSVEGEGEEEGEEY

Karpas-299 cells = test: Cellular toxicity test (1), CellTiter-Glo, Karpas-299; assay type: cell-based; details: Homo sapiens, 96 h, cultured 4 days, cell viability
Description: as §1, §2, §3

porcine tubulin [2] = target: T1, porcine tubulin; test: Activity for inhibiting microtubule polymerization using porcine tubulins (2), microtubule polymerization rate; details: 60 minutes after assay initiation; relative to wells without compound; lower = stronger inhibition
in vitro = details: PAMPA, pH 7.4
Description: By the parallel artificial membrane permeability assay (PAMPA), the membrane permeability of compounds of Examples was examined as follows: To the donor plate, System solution (pION inc.) and GIT Lipid-0 (pION inc.) were added in an amount of 200 μL and 4 μL for each well, respectively. To the acceptor plate, Acceptor Sink Buffer (pION inc.) was added in an amount of 200 μL. Both plates were superposed and incubated at 37° C. for 4 hours, and then, UVs in the solutions on the side of acceptor and on the side of donor were measured with an UV plate reader (190 to 500 nm). Compounds with poor UV absorption were measured by LC-MS. The permeability coefficient Pe (10^−6 cm/sec) of the drug was calculated by the following formula.

[3] = Pharmacokinetic evaluation test using mice; assay type: in vivo; details: for half-life: single intravenous administration
Description: A pharmacokinetic evaluation test was performed by single intravenous administration of Example 4 at a dose of 1.0 mg/kg to mice. A calibration curve was made from measurements of Example 4 with known concentration, and by interpolating measurements of each specimen to this, the amount of the compound contained in unit volume of each plasma was calculated using LC-MS. Pharmacokinetics of compound 14 and hemiasterlin were similarly evaluated.
(n.d. in the tables means less than the detection limit value (0.5 ng/mL).)

CN[C@H](C(=O)N[C@H](C(=O)N(C)[C@H](/C=C(\C)C(=O)N[C@@H](CS)C(=O)O)C(C)C)C(C)(C)C)C(C)(C)c1cn(C)c2ccccc12 [Example 23]
IC50 (SU-DHL-1 cells): > 50 nM
IC50 (SK-BR-3 cells): 143 nM
activity for inhibiting microtubule polymerization (porcine tubulin [1]): exhibited activities for inhibiting microtubule polymerization

CN[C@H](C(=O)N[C@H](C(=O)N(C)[C@H](/C=C(\C)C(=O)N[C@@H](CC(=O)O)C(=O)O)C(C)C)C(C)(C)C)C(C)(C)c1cn(C)c2ccccc12 [Example 11]
IC50 (SU-DHL-1 cells): 158 nM
IC50 (Karpas-299 cells): 220 nM
IC50 (SK-BR-3 cells): 157 nM
Microtubule polymerization rate (%) (porcine tubulin [2]): 5%

CN[C@H](C(=O)N[C@H](C(=O)N(C)[C@H](/C=C(\C)C(=O)N[C@@H](CS)C(=O)OC)C(C)C)C(C)(C)C)C(C)(C)c1cn(C)c2ccccc12 [Example 22]
IC50 (SU-DHL-1 cells): 1.22 nM
IC50 (SK-BR-3 cells): 1.92 nM

CCOC(=O)[C@@H](CCC(=O)O)NC(=O)/C(C)=C/[C@H](C(C)C)N(C)C(=O)[C@@H](NC(=O)[C@@H](NC)C(C)(C)c1cn(C)c2ccccc12)C(C)(C)C [Example 14]
IC50 (SU-DHL-1 cells): 0.24 nM
IC50 (Karpas-299 cells): 0.12 nM
IC50 (SK-BR-3 cells): 1.03 nM
Papp (in vitro): 4.5 ×10⁻⁶ cm/s
half-life ([3]; mouse, plasma, 1 mg/kg): < 0.5 h
Blood concentration of Example 14 ([3]; single intravenous administration of Example 14, 0.5 hr, animal 1): n.d. (less than the detection limit value (0.5 ng/mL))
Blood concentration of Example 14 ([3]; single intravenous administration of Example 14, 0.5 hr, animal 2): n.d. (less than the detection limit value (0.5 ng/mL))
Blood concentration of Example 14 ([3]; single intravenous administration of Example 14, 0.5 hr, animal 3): n.d. (less than the detection limit value (0.5 ng/mL))
Blood concentration of Example 14, mean ([3]; single intravenous administration of Example 14, 0.5 hr): n.d. (less than the detection limit value (0.5 ng/mL))
Blood concentration of Example 14 ([3]; single intravenous administration of Example 14, 2 hr, animal 1): n.d. (less than the detection limit value (0.5 ng/mL))
Blood concentration of Example 14 ([3]; single intravenous administration of Example 14, 2 hr, animal 2): n.d. (less than the detection limit value (0.5 ng/mL))
Blood concentration of Example 14 ([3]; single intravenous administration of Example 14, 2 hr, animal 3): n.d. (less than the detection limit value (0.5 ng/mL))
Blood concentration of Example 14, mean ([3]; single intravenous administration of Example 14, 2 hr): n.d. (less than the detection limit value (0.5 ng/mL))
Blood concentration of Example 14 ([3]; single intravenous administration of Example 14, 6 hr, animal 1): n.d. (less than the detection limit value (0.5 ng/mL))
Blood concentration of Example 14 ([3]; single intravenous administration of Example 14, 6 hr, animal 2): n.d. (less than the detection limit value (0.5 ng/mL))
Blood concentration of Example 14 ([3]; single intravenous administration of Example 14, 6 hr, animal 3): n.d. (less than the detection limit value (0.5 ng/mL))
Blood concentration of Example 14, mean ([3]; single intravenous administration of Example 14, 6 hr): n.d. (less than the detection limit value (0.5 ng/mL))
Blood concentration of Example 14 ([3]; single intravenous administration of Example 14, 24 hr, animal 1): n.d. (less than the detection limit value (0.5 ng/mL))
Blood concentration of Example 14 ([3]; single intravenous administration of Example 14, 24 hr, animal 2): n.d. (less than the detection limit value (0.5 ng/mL))
Blood concentration of Example 14 ([3]; single intravenous administration of Example 14, 24 hr, animal 3): n.d. (less than the detection limit value (0.5 ng/mL))
Blood concentration of Example 14, mean ([3]; single intravenous administration of Example 14, 24 hr): n.d. (less than the detection limit value (0.5 ng/mL))
activity for inhibiting microtubule polymerization (porcine tubulin [1]): exhibited activities for inhibiting microtubule polymerization; also recorded: exhibited polymerization inhibitory activity concentration-dependently

CN[C@H](C(=O)N[C@H](C(=O)N(C)[C@H](/C=C(\C)C(=O)O)C(C)C)C(C)(C)C)C(C)(C)c1cn(C)c2ccccc12 [Hemiasterlin, hemiasterlin]
IC50 (Karpas-299 cells): 0.032 nM
IC50 (SK-BR-3 cells): 0.088 nM
half-life ([3]; mouse, plasma, 1 mg/kg): < 13.1 h
concentration at 0.5 hr ([3]; mouse, plasma, iv, 1 mg/kg, single intravenous 1.0 mg/kg, 0.5 hr, read-out: Blood concentration, mean value): 65 ng/mL
concentration at 2 hr ([3]; mouse, plasma, iv, 1 mg/kg, single intravenous 1.0 mg/kg, 2 hr, read-out: Blood concentration, individual mice 1-3): 25.1 ng/mL
concentration at 2 hr ([3]; mouse, plasma, iv, 1 mg/kg, single intravenous 1.0 mg/kg, 2 hr, read-out: Blood concentration, mean value): 25.8 ng/mL
concentration at 6 hr ([3]; mouse, plasma, iv, 1 mg/kg, single intravenous 1.0 mg/kg, 6 hr, read-out: Blood concentration, individual mice 1-3): 18.9 ng/mL
concentration at 6 hr ([3]; mouse, plasma, iv, 1 mg/kg, single intravenous 1.0 mg/kg, 6 hr, read-out: Blood concentration, mean value): 22.4 ng/mL
concentration at 24 hr ([3]; mouse, plasma, iv, 1 mg/kg, single intravenous 1.0 mg/kg, 24 hr, read-out: Blood concentration, mean value): 8.3 ng/mL
Blood concentration, individual mice 1-3 ([3]; single intravenous 1.0 mg/kg, 0.5 hr, 1 mg/kg): 54.5 ng/mL and 99.8 ng/mL and 40.6 ng/mL
Blood concentration, individual mice 1-3 ([3]; single intravenous 1.0 mg/kg, 2 hr, 1 mg/kg): 22.2 ng/mL and 30.20 ng/mL
Blood concentration, individual mice 1-3 ([3]; single intravenous 1.0 mg/kg, 6 hr, 1 mg/kg): 18.2 ng/mL and 30.2 ng/mL
Blood concentration, individual mice 1-3 ([3]; single intravenous 1.0 mg/kg, 24 hr, 1 mg/kg): 2.4 ng/mL and 12.8 ng/mL and 9.5 ng/mL
Microtubule polymerization rate (%) (porcine tubulin [2]): 3%

CCOC(=O)CC[C@@H](NC(=O)/C(C)=C/[C@H](C(C)C)N(C)C(=O)[C@@H](NC(=O)[C@@H](NC)C(C)(C)c1cn(C)c2ccccc12)C(C)(C)C)C(=O)OCC [Example 9]
activity for inhibiting microtubule polymerization (porcine tubulin [1]): exhibited activities for inhibiting microtubule polymerization
